# Measured values reported in the NIST ThermoML archive (doi:10.1016/j.tca.2014.12.004).
# Numbers after ± are expanded uncertainties.
# Columns and labels:
# [1] = Molar enthalpy of transition or fusion; settings: Crystal; DSC
# [2] = for thermal conductivity: 101.33 kPa
structure (smiles),measurement,setting,value
CCCCCCCCCCCC(=O)O [dodecanoic acid],Molar enthalpy of transition or fusion,[1],7.56 ± 0.621 kcal/mol
same,thermal conductivity,"[2]; 303.15 K, Crystal",0.216 ± 0.016 W/m/K
same,thermal conductivity,"[2]; 308.15 K, Crystal",0.218 ± 0.016 W/m/K
same,thermal conductivity,"[2]; 313.15 K, Crystal",0.208 ± 0.015 W/m/K
same,thermal conductivity,"[2]; 323.15 K, Liquid",0.14 ± 0.01 W/m/K
same,thermal conductivity,"[2]; 333.15 K, Liquid",0.14 ± 0.01 W/m/K
same,Normal melting temperature,"[2]; Crystal, DTA",42.80 ± 5 °C
